Source: patent publication US8236840B2, “Thiopene containing analogues of fluconazole as antifungal agents and process for their preparation” (Council of Scientific & Industrial Research, priority 2008, dated 2012)
≈ marks a conversion by molar mass, not a printed value.

Columns and labels:
Format in all cases: cell-based
[1] = system: Fusarium proliferatum ATCC 10052; test: Antifungal MIC by broth dilution (CLSI M38-A), RPMI 1640 with MOPS; conditions: broth macro-dilution, end point after 48 hours, MIC = 80% inhibition vs growth control (Amphotericin B: complete inhibition); for MIC: Fusarium proliferatum, ATCC10052, read-out: MIC F. proliferatum ATCC 10052
Experimental: (§1) The compounds of Formula 1 were tested for antifungal activity against Candida albicans, Aspergillus niger and Fusarium proliferatum. In vitro evaluation of antifungal activity was performed by determining the minimum inhibitory concentration (MIC) following standard methods (CLSI: Reference method for broth dilution antifungal susceptibility testing of yeasts; Approved standard, second edition M27-A2, 2002; CLSI: Reference method for broth dilution antifungal susceptibility testing of filamentous fungi; Approved standard M38-A, 2002). Anti-fungal susceptibility testing of these compounds of Formula 1 was done by broth dilution method using RPMI 1640 medium with MOPS buffer. Known anti-fungal agents like Fluconazole and Amphotericin-B were used as standards. End points were determined after 48 hours visually and by using spectrophotometer wherever necessary.

[2] = system: Aspergillus niger ATCC 16404; test: as above; conditions: broth macro-dilution, end point after 48 hours, MIC = 80% inhibition vs growth control (Amphotericin B: complete inhibition); for MIC: Aspergillus niger, ATCC16404
Experimental: as §1

[3] = system: Candida albicans ATCC 24433; test: Antifungal MIC by broth dilution (CLSI M27-A2), RPMI 1640 with MOPS; conditions: broth macro-dilution, end point after 48 hours, MIC = 80% inhibition vs growth control (Amphotericin B: complete inhibition); for MIC: Candida albicans, ATCC24433, read-out: MIC C. albicans ATCC 24433
Experimental: as §1

| SMILES | MIC [1] | MIC [2] | MIC [3] | MIC F. proliferatum ATCC 10052 [1] | MIC A. niger ATCC 16404 [2] | MIC C. albicans ATCC 24433 [3] |
| --- | --- | --- | --- | --- | --- | --- |
| CCOC(=O)c1c(NCC(O)(Cn2cncn2)c2ccc(F)cc2F)sc2c1CCC2 (stereo not drawn) [Compound 1g, Ethyl 2-[2-(2,4-difluorophenyl)-2-hydroxy-3-[1,2,4]triazol-1-yl-propylamino]-5,6-dihydro-4H-cyclopenta[b]thiophene-3-carboxylate] | > 8 µg/mL | > 8 µg/mL | 2 µg/mL (≈ 4.46 µM) | – | – | – |
| CCOC(=O)c1c(NCC(O)(Cn2cncn2)c2ccc(F)cc2F)sc2c1CCCCC2 (stereo not drawn) [Compound 1i, Ethyl 2-[2-(2,4-difluorophenyl)-2-hydroxy-3-[1,2,4]triazol-1-yl-propylamino]-5,6,7,8-tetrahydro-4H-cyclohepta[b]thiophene-3-carboxylate] | > 8 µg/mL | > 8 µg/mL | 8 µg/mL (≈ 16.8 µM) | – | – | – |
| CCOC(=O)c1c(NCC(O)(Cn2cncn2)c2ccc(F)cc2F)sc2c1CCCC2 (stereo not drawn) [Compound 1h, Ethyl 2-[2-(2,4-difluorophenyl)-2-hydroxy-3-[1,2,4]triazol-1-yl-propylamino]-4,5,6,7-tetrahydro-benzo[b]thiophene-3-carboxylate] | > 4 µg/mL | > 4 µg/mL | 4 µg/mL (≈ 8.65 µM) | – | – | – |
| CCCCCc1cc(C#N)c(NCC(O)(Cn2cncn2)c2ccc(F)cc2F)s1 (stereo not drawn) [Compound 1n, 2-[2-(2,4-Difluorophenyl)-2-hydroxy-3-[1,2,4]triazol-1-yl-propylamino]-5-pentyl-thiophene-3-carbonitrile] | > 4 µg/mL | > 4 µg/mL | 0.25 µg/mL (≈ 0.579 µM) | – | – | – |
| Cc1cc(C#N)c(NCC(O)(Cn2cncn2)c2ccc(F)cc2F)s1 (stereo not drawn) [Compound 1k, 2-[2-(2,4-Difluorophenyl)-2-hydroxy-3-[1,2,4]triazol-1-yl-propylamino]-5-methyl-thiophene-3-carbonitrile] | > 32 µg/mL | > 32 µg/mL | 0.5 µg/mL (≈ 1.33 µM) | – | – | – |
| C[C@@H]1[C@H](O)[C@@H](C)/C=C/C=C/C=C/C=C/C=C/C=C/C=C/[C@H](O[C@@H]2O[C@H](C)[C@@H](O)[C@H](N)[C@@H]2O)C[C@@H]2O[C@](O)(C[C@@H](O)C[C@@H](O)[C@H](O)CC[C@@H](O)C[C@@H](O)CC(=O)O[C@H]1C)C[C@H](O)[C@H]2C(=O)O [Amphotericin B, reference compound] | – | – | – | 2 µg/mL (≈ 2.16 µM) | 1 µg/mL (≈ 1.08 µM) | 0.25 µg/mL (≈ 0.271 µM) |
| CCOC(=O)c1cc(CC)sc1NCC(O)(Cn1cncn1)c1ccc(F)cc1F (stereo not drawn) [Compound 1b, Ethyl 2-[2-(2,4-difluorophenyl)-2-hydroxy-3-[1,2,4]triazol-1-yl-propylamino]-5-ethyl-thiophene-3-carboxylate] | > 4 µg/mL | > 4 µg/mL | 2 µg/mL (≈ 4.58 µM) | – | – | – |
| CCOC(=O)c1cc(CCCOCc2ccccc2)sc1NCC(O)(Cn1cncn1)c1ccc(F)cc1F (stereo not drawn) [Compound 1f, Ethyl 5-(3-benzyloxypropyl)-2-[2-(2,4-difluorophenyl)-2-hydroxy-3-[1,2,4]triazol-1-yl-propylamino]-thiophene-3-carboxylate] | > 4 µg/mL | > 4 µg/mL | > 4 µg/mL | – | – | – |
| CCCCCCCc1cc(C(=O)OCC)c(NCC(O)(Cn2cncn2)c2ccc(F)cc2F)s1 (stereo not drawn) [Compound 1d, Ethyl 2-[2-(2,4-difluorophenyl)-2-hydroxy-3[1,2,4]triazol-1-yl-propylamino]-5-heptyl-thiophene-3-carboxylate] | > 8 µg/mL | > 8 µg/mL | > 8 µg/mL | – | – | – |

Results, then the molecule that gave them:

| MIC [1] | MIC [2] | MIC [3] | MIC F. proliferatum ATCC 10052 [1] | MIC A. niger ATCC 16404 [2] | MIC C. albicans ATCC 24433 [3] | SMILES |
| --- | --- | --- | --- | --- | --- | --- |
| > 16 µg/mL | > 16 µg/mL | 2 µg/mL (≈ 4.73 µM) | – | – | – | CCOC(=O)c1cc(C)sc1NCC(O)(Cn1cncn1)c1ccc(F)cc1F (stereo not drawn) [Compound 1a, Ethyl 2-[2-(2,4-difluorophenyl)-2-hydroxy-3-[1,2,4]triazol-1-yl-propylamino]-5-methyl-thiophene-3-carboxylate] |
| > 4 µg/mL | > 4 µg/mL | > 4 µg/mL | – | – | – | CCCCCCCCCCc1cc(C(=O)OCC)c(NCC(O)(Cn2cncn2)c2ccc(F)cc2F)s1 (stereo not drawn) [Compound 1e, Ethyl 5-n-decyl-2-[2-(2,4-difluorophenyl)-2-hydroxy-3-[1,2,4]triazol-1-yl-propylamino]-thiophene-3-carboxylate] |
| > 2 µg/mL | > 2 µg/mL | > 2 µg/mL | – | – | – | CCCCCCc1sc(NCC(O)(Cn2cncn2)c2ccc(F)cc2F)c(C(=O)OCC)c1C (stereo not drawn) [Compound 1j, Ethyl 2-[2-(2,4-difluorophenyl)-2-hydroxy-3-[1,2,4]triazol-1-yl-propylamino]-5-hexyl-4-methyl-thiophene-3-carboxylate] |
| > 128 µg/mL | 128 µg/mL (≈ 418 µM) | 1 µg/mL (≈ 3.27 µM) | – | – | – | OC(Cn1cncn1)(Cn1cncn1)c1ccc(F)cc1F [Fluconazole] |
| > 32 µg/mL | > 32 µg/mL | 0.12 µg/mL (≈ 0.297 µM) | – | – | – | CCCc1cc(C#N)c(NCC(O)(Cn2cncn2)c2ccc(F)cc2F)s1 (stereo not drawn) [Compound 1m, 2-[2-(2,4-Difluorophenyl)-2-hydroxy-3-[1,2,4]triazol-1-yl-propylamino]-5-propyl-thiophene-3-carbonitrile] |
| > 16 µg/mL | > 16 µg/mL | 0.5 µg/mL (≈ 1.25 µM) | – | – | – | N#Cc1c(NCC(O)(Cn2cncn2)c2ccc(F)cc2F)sc2c1CCC2 (stereo not drawn) [Compound 1o, 2-[2-(2,4-Difluorophenyl)-2-hydroxy-3-[1,2,4]triazol-1-yl-propylamino]-5,6-dihydro-4H-cyclopenta[b]thiophene-3-carbonitrile] |
| > 16 µg/mL | > 16 µg/mL | 2 µg/mL (≈ 4.44 µM) | – | – | – | CCCc1cc(C(=O)OCC)c(NCC(O)(Cn2cncn2)c2ccc(F)cc2F)s1 (stereo not drawn) [Compound 1c, Ethyl 2-[2-(2,4-difluorophenyl)-2-hydroxy-3-[1,2,4]triazol-1-yl-propylamino]-5-propyl-thiophene-3-carboxylate] |
| > 16 µg/mL | > 16 µg/mL | 0.25 µg/mL (≈ 0.642 µM) | – | – | – | CCc1cc(C#N)c(NCC(O)(Cn2cncn2)c2ccc(F)cc2F)s1 (stereo not drawn) [Compound 1l, 2-[2-(2,4-Difluorophenyl)-2-hydroxy-3-[1,2,4]triazol-1-yl-propylamino]-5-ethyl-thiophene-3-carbonitrile] |
